Measurements: US20250179193A1, “TREATMENT WITH AN ANTIBODY THAT BINDS EGFR AND CMET” (MERUS N.V., priority 2022, published 2025)

Columns and labels:
[1] = system: NSCLC CDX model HCC827-ER1 (EGFR exon 19 deletion E746-A750); details: mouse, in vivo
Description: Body weights were measured twice per week after randomization.

cMET than EGFR = details: Moores et al. (2016); cited from earlier work

Molecule | absolute body weight [1] | affinity imbalance, greater affinity for cMET than EGFR (cMET than EGFR)
C=CC(=O)Nc1cc(Nc2nccc(-c3cn(C)c4ccccc34)n2)c(OC)cc1N(C)CCN(C)C [Osimertinib] | lower compared to Groups 1 and 2 | –
JNJ-61186372: bispecific cMET×EGFR antibody produced by controlled Fab-arm exchange (Moores et al 2016) | – | approximately 40 ×
